Experimental data reported in patent publication US9932325B2 (Denali Therapeutics Inc., priority 2015, dated 2018).
Where “and” joins values, the source holds several entries; their conditions need not be identical. Equal values may be shown once.

What was measured:
LRRK2 G2019S enzyme = LRRK2 G2019S enzyme (Homo sapiens (Human), UniProt Q5S007, G2019S); assay: LRRK2 G2019S TR-FRET biochemical assay (LRRKtide substrate); conditions: 134 μM ATP
Procedure, shortened: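 Kinase and LRRKtide substrate were preincubated with compound 20 minutes at 23° C, then ATP was added and the reaction ran 60 minutes at 23° C. Detection used 2 nM antibody with 10 mM EDTA in TR-FRET dilution buffer, 60 minutes at 23° C, read by TR-FRET.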

[1] = Metabolic stability in human liver microsomes; assay type: in vitro ADME; conditions: 1 μM compound, 0.5 mg/mL protein, projected hepatic clearance, well-stirred model
Experimental: Metabolic stability of compounds was evaluated in human liver microsomes (from Corning or XenoTech, LLC) using a 96-well plate assay format. Compounds were incubated at 37° C. at 1 μM final concentration in the microsomal matrix (0.5 mg/mL total protein) in the presence or absence of NADPH cofactor. An NADPH regenerating system, comprised of NADP, MgCl2, isocitric acid, and isocitrate dehydrogenase, was used in the assay. Enzymatic reactions were conducted for 0, 5, 10, 20, 30, or 60 min before termination by addition of acetonitrile containing tolbutamide and labetalol internal standards (100 ng/mL). After shaking for 10 min, plates were subjected to centrifugation (4000 rpm at 4° C.) for 20 min and supernatants were mixed 1:3 with HPLC grade water. Samples were analyzed by LC-MS/MS using appropriate MRM transitions for each analyte and internal standard (IS). Analyte/IS peak area ratios were used to determine percent compound remaining at each time point. Intrinsic clearance (Clint; expressed as mL·min^−1·mg^−1) was calculated from the first order elimination constant (k, min^−1) of test article decay and the volume of the incubation. These values were scaled to intrinsic organ clearance (Clint) using human specific scaling factors (48.8 mg microsomal protein per g liver; 25.7 g liver per kg body weight). Organ Clint was subsequently converted to hepatic clearance (CLhep, mL·min-1·kg-1) using the well-stirred model of hepatic elimination, where Qh is human hepatic blood flow (20.7 mL·min-1·kg-1).
CLhep is the projected human clearance in the liver based on the above in vitro assay. A lower value is indicative of less compound being removed by the liver.

MDR1 (P-glycoprotein) = MDR1 (P-glycoprotein) (Homo sapiens (Human), UniProt P08183); assay: MDR1-MDCK permeability, bidirectional assay; assay type: in vitro ADME; conditions: dog, MDR1-MDCK cells, monolayer efflux ratio, pH 7.4, read-out: MDR1 ER
MDR1 (P-glycoprotein), sequence (P08183 whole entry): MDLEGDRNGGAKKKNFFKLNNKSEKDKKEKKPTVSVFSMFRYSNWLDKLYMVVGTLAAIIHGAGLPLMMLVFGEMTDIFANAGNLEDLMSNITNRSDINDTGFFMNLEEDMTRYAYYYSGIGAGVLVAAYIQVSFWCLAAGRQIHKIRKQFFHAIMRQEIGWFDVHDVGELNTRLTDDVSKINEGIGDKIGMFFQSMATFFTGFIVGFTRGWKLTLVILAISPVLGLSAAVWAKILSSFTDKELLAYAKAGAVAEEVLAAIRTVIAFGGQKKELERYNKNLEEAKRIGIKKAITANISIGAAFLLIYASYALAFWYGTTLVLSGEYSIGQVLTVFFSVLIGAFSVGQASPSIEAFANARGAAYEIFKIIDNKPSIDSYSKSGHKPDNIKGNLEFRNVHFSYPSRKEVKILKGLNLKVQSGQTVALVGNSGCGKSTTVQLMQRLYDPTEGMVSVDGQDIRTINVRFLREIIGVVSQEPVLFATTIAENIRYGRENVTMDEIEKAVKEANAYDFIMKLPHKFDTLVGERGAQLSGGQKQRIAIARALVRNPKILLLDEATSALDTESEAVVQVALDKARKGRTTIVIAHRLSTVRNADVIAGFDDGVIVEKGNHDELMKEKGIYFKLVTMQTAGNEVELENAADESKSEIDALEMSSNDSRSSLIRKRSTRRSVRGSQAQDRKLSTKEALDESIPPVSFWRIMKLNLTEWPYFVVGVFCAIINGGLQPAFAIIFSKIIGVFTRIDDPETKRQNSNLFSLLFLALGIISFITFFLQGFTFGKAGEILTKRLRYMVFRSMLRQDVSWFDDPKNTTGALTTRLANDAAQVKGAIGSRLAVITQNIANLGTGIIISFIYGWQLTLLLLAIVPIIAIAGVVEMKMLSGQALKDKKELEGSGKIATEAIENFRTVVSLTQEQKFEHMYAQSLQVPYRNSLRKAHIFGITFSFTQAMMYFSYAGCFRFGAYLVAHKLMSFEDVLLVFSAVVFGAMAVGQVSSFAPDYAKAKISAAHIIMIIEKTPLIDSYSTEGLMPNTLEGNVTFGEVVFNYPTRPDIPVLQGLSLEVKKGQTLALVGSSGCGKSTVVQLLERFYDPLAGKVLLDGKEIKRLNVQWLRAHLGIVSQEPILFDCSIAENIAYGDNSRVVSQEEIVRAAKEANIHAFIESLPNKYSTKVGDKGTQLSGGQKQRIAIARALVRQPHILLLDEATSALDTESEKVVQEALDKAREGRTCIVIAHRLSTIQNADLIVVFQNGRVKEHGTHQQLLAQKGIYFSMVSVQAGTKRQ
Experimental: The blood brain barrier (BBB) separates circulating blood from the extracellular fluid of the central nervous system (CNS). The passive membrane permeability (Papp) and MDR1 (P-glycoprotein) substrate efflux potential were determined using the MDR1-MDCK cell line as an in vitro model of the effective permeability of a compound through the BBB. A bidirectional assay was conducted in pre-plated MDR1-MDCK cells using a 12 or 96-well plate in the absence or presence of MDR1 inhibitor (GF120918 or Valspodar). Assays were run in duplicate in transport buffer (HBSS, pH 7.4) for 90 or 120 min (minutes) at 37° C., using a test article concentration of 1 μM. Monolayer integrity was confirmed using Lucifer yellow, and appropriate positive controls for passive permeability and MDR1 transport were included in each experiment. Following incubation, samples from donor and receiver compartments were removed and quenched with acetonitrile containing an appropriate internal standard (IS). Protein was precipitated by centrifugation for 10 min at 3220 g, and supernatants were diluted in ultra-pure water (if necessary) prior to analysis by LC-MS/MS using appropriate MRM transitions for analytes and IS. Papp (apparent permeability expressed in cm/sec [centimeter/second]) values were calculated according to the following equation:
[formula] where VR is the solution volume in the receiver chamber (apical or basolateral side), Area is the surface area for the insert membrane), Time is incubation time expressed in seconds, CR is the peak area ratio (analyte/IS) in the receiver chamber, CA is the average of the initial and final concentrations in the donor chamber, and Co is the initial peak area ratio in the donor chamber. Papp was determined in both the apical to basolateral (A→B) and basolateral to apical (B→A) directions.
Monolayer efflux ratios (ER) were derived using the following equation: […]

LRRK2 G2019S enzyme, sequence (Q5S007 whole entry G2019S): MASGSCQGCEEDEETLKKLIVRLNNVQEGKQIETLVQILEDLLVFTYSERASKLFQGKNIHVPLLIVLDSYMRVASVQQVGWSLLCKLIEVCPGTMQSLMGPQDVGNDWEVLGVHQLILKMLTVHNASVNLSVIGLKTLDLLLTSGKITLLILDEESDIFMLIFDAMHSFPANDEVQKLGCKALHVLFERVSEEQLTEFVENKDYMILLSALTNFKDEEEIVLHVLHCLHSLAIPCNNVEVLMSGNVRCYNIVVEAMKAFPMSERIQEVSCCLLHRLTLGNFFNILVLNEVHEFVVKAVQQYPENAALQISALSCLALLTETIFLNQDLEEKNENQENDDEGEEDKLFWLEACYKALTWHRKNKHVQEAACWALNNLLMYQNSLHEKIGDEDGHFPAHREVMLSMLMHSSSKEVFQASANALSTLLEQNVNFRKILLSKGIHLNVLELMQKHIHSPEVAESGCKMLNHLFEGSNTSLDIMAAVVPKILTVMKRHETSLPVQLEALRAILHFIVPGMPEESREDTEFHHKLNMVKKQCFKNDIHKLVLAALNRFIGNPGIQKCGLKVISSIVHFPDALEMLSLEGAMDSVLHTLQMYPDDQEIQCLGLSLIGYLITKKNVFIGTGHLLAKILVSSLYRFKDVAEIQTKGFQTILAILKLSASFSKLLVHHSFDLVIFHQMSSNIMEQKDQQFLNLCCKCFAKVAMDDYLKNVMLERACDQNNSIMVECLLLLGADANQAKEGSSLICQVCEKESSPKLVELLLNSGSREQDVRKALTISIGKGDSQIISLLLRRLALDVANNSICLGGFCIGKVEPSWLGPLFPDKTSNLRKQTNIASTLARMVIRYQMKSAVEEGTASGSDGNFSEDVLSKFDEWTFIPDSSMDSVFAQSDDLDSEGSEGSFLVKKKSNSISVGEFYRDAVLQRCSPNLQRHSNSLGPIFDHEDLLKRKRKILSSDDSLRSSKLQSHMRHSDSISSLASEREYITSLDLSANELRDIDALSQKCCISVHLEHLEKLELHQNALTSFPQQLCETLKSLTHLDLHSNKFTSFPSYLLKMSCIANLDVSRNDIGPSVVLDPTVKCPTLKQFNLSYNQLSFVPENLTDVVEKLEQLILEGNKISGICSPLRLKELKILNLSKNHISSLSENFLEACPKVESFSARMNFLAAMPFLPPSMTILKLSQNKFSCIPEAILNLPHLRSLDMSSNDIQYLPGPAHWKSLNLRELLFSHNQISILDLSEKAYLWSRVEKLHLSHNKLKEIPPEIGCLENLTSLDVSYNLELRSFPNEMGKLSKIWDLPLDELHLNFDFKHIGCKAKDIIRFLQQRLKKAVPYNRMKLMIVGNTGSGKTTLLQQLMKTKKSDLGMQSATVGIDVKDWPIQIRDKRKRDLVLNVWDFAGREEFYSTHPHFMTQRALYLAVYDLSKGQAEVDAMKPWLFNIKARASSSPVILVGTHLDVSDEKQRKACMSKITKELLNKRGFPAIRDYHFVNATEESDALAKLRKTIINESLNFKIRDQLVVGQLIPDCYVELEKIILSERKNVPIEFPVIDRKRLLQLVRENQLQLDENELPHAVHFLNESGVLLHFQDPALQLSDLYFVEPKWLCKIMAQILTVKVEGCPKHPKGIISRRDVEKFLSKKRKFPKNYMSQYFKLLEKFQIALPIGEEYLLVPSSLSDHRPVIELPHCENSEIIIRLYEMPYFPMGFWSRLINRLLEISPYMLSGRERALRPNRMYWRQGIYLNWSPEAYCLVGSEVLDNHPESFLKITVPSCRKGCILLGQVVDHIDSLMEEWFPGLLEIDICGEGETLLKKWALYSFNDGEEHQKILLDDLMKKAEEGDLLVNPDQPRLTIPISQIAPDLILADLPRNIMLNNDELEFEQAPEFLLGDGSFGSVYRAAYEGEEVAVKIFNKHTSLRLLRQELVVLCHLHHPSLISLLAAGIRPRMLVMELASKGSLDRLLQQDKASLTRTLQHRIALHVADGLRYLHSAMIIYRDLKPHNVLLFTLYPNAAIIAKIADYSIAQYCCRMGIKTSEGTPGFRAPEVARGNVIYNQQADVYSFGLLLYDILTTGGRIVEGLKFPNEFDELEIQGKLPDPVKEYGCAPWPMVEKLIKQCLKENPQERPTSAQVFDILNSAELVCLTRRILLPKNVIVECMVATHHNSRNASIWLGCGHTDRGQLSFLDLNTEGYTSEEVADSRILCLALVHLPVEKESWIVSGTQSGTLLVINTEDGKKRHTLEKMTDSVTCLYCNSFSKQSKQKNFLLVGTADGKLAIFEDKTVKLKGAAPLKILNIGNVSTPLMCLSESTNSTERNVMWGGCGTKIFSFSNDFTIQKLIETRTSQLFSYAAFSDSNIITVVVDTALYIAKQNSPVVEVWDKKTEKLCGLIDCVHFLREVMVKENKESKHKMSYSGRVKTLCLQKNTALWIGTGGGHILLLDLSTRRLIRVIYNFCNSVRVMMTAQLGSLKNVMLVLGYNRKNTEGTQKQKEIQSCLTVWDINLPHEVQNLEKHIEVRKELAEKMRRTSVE

Structure (SMILES) | IC50 (LRRK2 G2019S enzyme) | Human liver microsomes CLhep [1] [mL/min/kg] | efflux ratio at 1 μM (MDR1 (P-glycoprotein))
CNc1nc(Nc2cn(C3(C)CCOC3=O)nc2C2CC2)ncc1C(F)(F)F (single isomer, unassigned) [Compound 122] | < 30 nM and 0.72 nM | 9.856 | 
[2H]C([2H])([2H])n1nc(C(C)(C)n2nccn2)cc1Nc1ncc(C(F)(F)F)c(NC2CC2)n1 [Compound 68] | < 30 nM and 2.23 nM | 3.18 | 4.01
CCNc1nc(Nc2cc(C(C)(C)C#N)nn2C2CC2)ncc1Br [Compound 141] | < 30 nM and 3.94 nM | 13.508 | 
CCNc1nc(Nc2cc(C3(C)CCOC3=O)nn2C2CC2)ncc1Br (single isomer, unassigned) [Compound 150] | < 30 nM and 1.22 nM | 11.077 | 
CCNc1nc(Nc2cc(C3(C)CCn4ncnc43)nn2C2CC2)ncc1C(F)(F)F (single isomer, unassigned) [Compound 172] | < 30 nM and 1.47 nM | 19.9 | 42
CCNc1nc(Nc2cn(C3(C)CCOC3=O)nc2C2CC2)ncc1C(F)(F)F (single isomer, unassigned) [Compound 104] | < 30 nM and 0.96 nM | 11.59 | 
[2H]C([2H])([2H])n1nc(C(C)(C)n2nccn2)cc1Nc1ncc(C(F)(F)F)c(NCC)n1 [Compound 34, N4-Ethyl-N2-[1-(^2H3)methyl-3-[2-(2H-1,2,3-triazol-2-yl)propan-2-yl]-1H-pyrazol-5-yl]-5-(trifluoromethyl)pyrimidine-2,4-diamine] | < 30 nM and 2.31 nM | 0.75 | 4.8
CCNc1nc(Nc2cn(C3(C)CCOC3=O)nc2C2CC2)ncc1Br (single isomer, unassigned) [Compound 114] | < 30 nM and 1.05 nM | 16.508 | 
CCNc1nc(Nc2cc(C(C)(C)n3nccn3)nn2C2CC2)ncc1C(F)(F)F [Compound 78, N2-[2-cyclopropyl-5-[1-methyl-1-(triazol-2-yl)ethyl]pyrazol-3-yl]-N4-ethyl-5-(trifluoromethyl)pyrimidine-2,4-diamine] | < 30 nM and 3.69 nM | 4.81 | 2
CCNc1nc(Nc2cn(C(C)(C)C#N)nc2C2CC2)ncc1C(F)(F)F [Compound 118] | < 30 nM and 1.55 nM | 7.81 | 0.83
CCNc1nc(Nc2cn(C(C)(C)C#N)nc2C2CC2)ncc1Br [Compound 93] | < 30 nM and 1.87 nM | 17.663 | 
CNc1nc(Nc2cn(C(C)(C)c3ncn(C)n3)nc2C)ncc1C(F)(F)F [Compound 218] | < 30 nM and 5.91 nM | 0 | 86
CNc1nc(Nc2cc(C3(C)CCOC3=O)nn2C2CC2)ncc1C(F)(F)F (single isomer, unassigned) [Compound 155] | < 30 nM and 1.95 nM | 5.519 | 
CCNc1nc(Nc2cnn(C3CC(C#N)C3)c2C)ncc1C(F)(F)F (centres unmarked) [Compound 27] |  | 7.81 | 0.88
CCNc1nc(Nc2cc(C3(C)CCOC3=O)nn2C2CC2)ncc1C(F)(F)F (single isomer, unassigned) [Compound 143] | < 30 nM and 1.21 nM | 7.81 | 
CCNc1nc(Nc2cc(C(C)(C)C#N)nn2C2CC2)ncc1C(F)(F)F [Compound 131] | < 30 nM and 4.98 nM | 2.237 | 
